In publication PMC8862572 (Bioorganic & medicinal chemistry, 2020):
“Also recorded” adds a separate entry of the source.

biological target: T1, Recombinant human SphK1 (Homo sapiens, UniProt Q9NYA1); test: biochemical; conditions: read-out: % SphK1 Inhibition
T1 sequence (Q9NYA1 whole entry): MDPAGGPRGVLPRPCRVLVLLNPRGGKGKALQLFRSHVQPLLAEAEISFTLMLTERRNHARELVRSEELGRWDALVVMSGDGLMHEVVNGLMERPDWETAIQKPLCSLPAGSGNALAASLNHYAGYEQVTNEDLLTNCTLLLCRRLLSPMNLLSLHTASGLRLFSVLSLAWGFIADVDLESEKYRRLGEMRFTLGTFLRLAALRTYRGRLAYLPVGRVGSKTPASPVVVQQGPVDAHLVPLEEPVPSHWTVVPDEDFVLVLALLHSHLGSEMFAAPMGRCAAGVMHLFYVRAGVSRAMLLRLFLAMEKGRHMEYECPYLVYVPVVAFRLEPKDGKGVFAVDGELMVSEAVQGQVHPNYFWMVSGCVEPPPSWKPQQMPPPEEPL

inhibition at 1 µM [%]	SMILES
29 ± 8	CCCc1ccc(CCc2ccc(CN3CCC[C@@H]3CO)cc2)cc1 [29a, (R)-(1-(4-(4-propylphenethyl)benzyl)pyrrolidin-2-yl)methanol]
23 ± 3	Cc1cc(/C=C/c2ccc(C(C)(C)C)cc2)ccc1CN1CCC[C@@H]1CO [25a, (R,E)-(1-(4-(4-(tert-butyl)styryl)-2-methylbenzyl)pyrrolidin-2-yl)methanol]
45 ± 1	OC[C@H]1CCCN1Cc1ccc(/C=C/c2cccc(C(F)(F)F)c2)cc1 [25b, (R,E)-(1-(4-(3-(trifluoromethyl)styryl)benzyl)pyrrolidin-2-yl) methanol]
4 ± 4	Cc1ccc(CCc2ccc(CN3CCC[C@@H]3CO)cc2)cc1 [22f, (R)-(1-(4-(4-methylphenethyl)benzyl)pyrrolidin-2-yl)methanol]
36 ± 3	CCCCCc1ccc(CCc2ccc(CN3CCC[C@@H]3CO)cc2)cc1 [29c, (R)-(1-(4-(4-pentylphenethyl)benzyl)pyrrolidin-2-yl)methanol]
31 ± 4	CCCCc1ccc(CCc2ccc(CN3CCC[C@@H]3CO)cc2)cc1 [29b, (R)-(1-(4-(4-butylphenethyl)benzyl)pyrrolidin-2-yl)methanol]
8 ± 7	COc1ccc(CCc2ccc(CN3CCC[C@@H]3CO)cc2)cc1 [22g, (R)-(1-(4-(4-methoxyphenethyl)benzyl)pyrrolidin-2-yl)methanol]
47 ± 6	CCCCCCCCCCCc1ccc(CN2CCC[C@@H]2COC(C)=O)cc1 [22h, (R)-(1-(4-undecylbenzyl)pyrrolidin-2-yl)methyl acetate]

biological target: T2, Recombinant human SphK2 (Homo sapiens, UniProt Q9NRA0); test: Recombinant hSphK2 cell lysate assay; type: biochemical; conditions: compound 0.3 μM
T2 sequence (Q9NRA0 1-654): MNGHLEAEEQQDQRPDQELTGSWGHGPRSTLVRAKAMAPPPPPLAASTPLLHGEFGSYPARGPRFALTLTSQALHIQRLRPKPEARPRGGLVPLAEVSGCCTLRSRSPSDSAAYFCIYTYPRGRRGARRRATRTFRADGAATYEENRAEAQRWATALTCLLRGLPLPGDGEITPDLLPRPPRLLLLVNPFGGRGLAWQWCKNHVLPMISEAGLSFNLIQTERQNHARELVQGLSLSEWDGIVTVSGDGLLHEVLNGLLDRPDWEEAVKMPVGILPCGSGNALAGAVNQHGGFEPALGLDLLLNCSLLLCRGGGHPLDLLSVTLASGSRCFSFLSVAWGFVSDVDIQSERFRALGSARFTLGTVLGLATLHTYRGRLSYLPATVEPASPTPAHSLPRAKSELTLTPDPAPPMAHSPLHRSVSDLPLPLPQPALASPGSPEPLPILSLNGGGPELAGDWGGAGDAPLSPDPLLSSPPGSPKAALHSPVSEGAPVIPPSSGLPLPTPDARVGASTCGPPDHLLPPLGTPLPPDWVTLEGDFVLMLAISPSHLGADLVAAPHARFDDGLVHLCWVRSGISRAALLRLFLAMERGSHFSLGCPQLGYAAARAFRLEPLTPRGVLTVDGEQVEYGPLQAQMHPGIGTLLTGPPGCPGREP

SMILES	SphK2 inhibition, in words
Cl.OC[C@H]1CCCN1Cc1ccc(OCc2ccc(C(F)(F)F)cc2)cc1 [12e, (R)-(1-(4-((4-(trifluoromethyl)benzyl)oxy)benzyl)pyrrolidin-2-yl)methanol]	weak SphK inhibition
CCCCCCCOc1ccc(CN2CCC[C@@H]2CO)cc1.Cl [12a, (R)-(1-(4-(heptyloxy)benzyl)pyrrolidin-2-yl)methanol]	poor SphK1 and 2 inhibition
Cl.OC[C@H]1CCCN1Cc1ccc(Oc2ccccc2)cc1 [18a, (R)-(1-(4-phenoxybenzyl)pyrrolidin-2-yl)methanol]	poor SphK1 and 2 inhibition
Cl.OC[C@H]1CCCN1Cc1ccc(Oc2cccc(-c3ccccc3)c2)cc1 [18d, (R)-(1-(4-([1,1′-biphenyl]-3-yloxy)benzyl)pyrrolidin-2-yl)methanol]	minimal enzyme inhibition
CC(C)(C)c1cccc(Oc2ccc(CN3CCC[C@@H]3CO)cc2)c1.Cl [18b, (R)-(1-(4-(3-(tert-butyl)phenoxy)benzyl)pyrrolidin-2-yl)methanol]	minimal enzyme inhibition

More lines, now with the values ahead:

SphK2 inhibition, in words	SMILES
strong inhibitory activity	CCCCCCCCCCc1ccc(CN2CCC[C@@H]2CO)cc1.Cl [22b, (R)-(1-(4-decylbenzyl)pyrrolidin-2-yl)methanol]
strong inhibitory activity	CCCCCCCCCCCCc1ccc(CN2CCC[C@@H]2CO)cc1.Cl [22d, (R)-(1-(4-dodecylbenzyl)pyrrolidin-2-yl)methanol]

same assay, conditions: read-out: % SphK2 Inhibition

inhibition at 0.3 µM [%]	SMILES
3 ± 4	CCCc1ccc(CCc2ccc(CN3CCC[C@@H]3CO)cc2)cc1 [29a, (R)-(1-(4-(4-propylphenethyl)benzyl)pyrrolidin-2-yl)methanol]
0	Cc1cc(/C=C/c2ccc(C(C)(C)C)cc2)ccc1CN1CCC[C@@H]1CO [25a, (R,E)-(1-(4-(4-(tert-butyl)styryl)-2-methylbenzyl)pyrrolidin-2-yl)methanol]
13 ± 5	OC[C@H]1CCCN1Cc1ccc(/C=C/c2cccc(C(F)(F)F)c2)cc1 [25b, (R,E)-(1-(4-(3-(trifluoromethyl)styryl)benzyl)pyrrolidin-2-yl) methanol]
3 ± 5	Cc1ccc(CCc2ccc(CN3CCC[C@@H]3CO)cc2)cc1 [22f, (R)-(1-(4-(4-methylphenethyl)benzyl)pyrrolidin-2-yl)methanol]
15 ± 5	CCCCCc1ccc(CCc2ccc(CN3CCC[C@@H]3CO)cc2)cc1 [29c, (R)-(1-(4-(4-pentylphenethyl)benzyl)pyrrolidin-2-yl)methanol]
2 ± 2	COc1ccc(CCc2ccc(CN3CCC[C@@H]3CO)cc2)cc1 [22g, (R)-(1-(4-(4-methoxyphenethyl)benzyl)pyrrolidin-2-yl)methanol]
26 ± 6	CCCCCCCCCCCc1ccc(CN2CCC[C@@H]2COC(C)=O)cc1 [22h, (R)-(1-(4-undecylbenzyl)pyrrolidin-2-yl)methyl acetate]

tested on: U937 cells; test: U937 cell culture assay, S1P levels by LC-MS/MS; conditions: 0.1 μM to 1.0 μM, 2.0 h incubation

SMILES	S1P levels in U937 cells
CCCCCCCCCCCCc1ccc(CN2CCC[C@@H]2CO)cc1.Cl [22d, (R)-(1-(4-dodecylbenzyl)pyrrolidin-2-yl)methanol]	decreased S1P levels; also recorded: concentration-dependent reduction of S1P levels

biological target: T1, Recombinant human SphK1; test: not given; conditions: compound 1.0 μM

SphK1 inhibition, in words	SMILES
weak SphK inhibition	Cl.OC[C@H]1CCCN1Cc1ccc(OCc2ccc(C(F)(F)F)cc2)cc1 [12e, (R)-(1-(4-((4-(trifluoromethyl)benzyl)oxy)benzyl)pyrrolidin-2-yl)methanol]
poor SphK1 and 2 inhibition	CCCCCCCOc1ccc(CN2CCC[C@@H]2CO)cc1.Cl [12a, (R)-(1-(4-(heptyloxy)benzyl)pyrrolidin-2-yl)methanol]
poor SphK1 and 2 inhibition	Cl.OC[C@H]1CCCN1Cc1ccc(Oc2ccccc2)cc1 [18a, (R)-(1-(4-phenoxybenzyl)pyrrolidin-2-yl)methanol]
minimal enzyme inhibition	Cl.OC[C@H]1CCCN1Cc1ccc(Oc2cccc(-c3ccccc3)c2)cc1 [18d, (R)-(1-(4-([1,1′-biphenyl]-3-yloxy)benzyl)pyrrolidin-2-yl)methanol]
minimal enzyme inhibition	CC(C)(C)c1cccc(Oc2ccc(CN3CCC[C@@H]3CO)cc2)c1.Cl [18b, (R)-(1-(4-(3-(tert-butyl)phenoxy)benzyl)pyrrolidin-2-yl)methanol]
